Results from article PMC4916434, “Evaluation of the inhibition potential of plumbagin against cytochrome P450 using LC-MS/MS and cocktail approach” (Scientific Reports, 2016).

Assays:
CYP1A2 = target: T1, CYP1A2 (Homo sapiens, UniProt P05177); assay: biochemical; assay type: in vitro ADME
T1 construct: consisting of pooled HLMs (0.5 mg/ml) or RLMs (1 mg/ml) and an NADPH-regenerating system; tissue Corning Gentest Corporation; host or cells: pooled human liver microsomes (n = 20)
T1 sequence (P05177 1-516): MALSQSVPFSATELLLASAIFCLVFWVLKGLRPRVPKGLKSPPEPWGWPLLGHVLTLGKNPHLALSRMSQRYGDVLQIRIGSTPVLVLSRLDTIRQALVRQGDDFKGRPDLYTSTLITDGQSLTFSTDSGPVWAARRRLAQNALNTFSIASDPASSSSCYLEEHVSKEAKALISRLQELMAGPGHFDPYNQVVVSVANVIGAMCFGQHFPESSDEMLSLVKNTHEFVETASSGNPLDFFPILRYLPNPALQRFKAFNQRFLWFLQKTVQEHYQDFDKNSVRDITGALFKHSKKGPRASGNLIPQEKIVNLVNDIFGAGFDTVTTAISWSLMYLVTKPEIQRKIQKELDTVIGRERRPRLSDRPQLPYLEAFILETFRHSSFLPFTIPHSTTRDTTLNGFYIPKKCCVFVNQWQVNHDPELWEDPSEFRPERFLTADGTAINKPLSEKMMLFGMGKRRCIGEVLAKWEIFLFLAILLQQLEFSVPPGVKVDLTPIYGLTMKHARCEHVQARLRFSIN
Method: (§1) Microsomal incubation was carried out at 37 °C in a mixture of 200 μl in 0.05 M Tris/HCl buffer (pH 7.4) consisting of pooled HLMs (0.5 mg/ml) or RLMs (1 mg/ml) and an NADPH-regenerating system including MgCl2 (5 mM), G6P (10 mM), G6PDH (0.4 U/ml) and NADP (1 mM). Substrates were added into the incubation mixture and obtained the final concentrations (10 μM phenacetin for CYP1A2, 20 μM bupropion for CYP2B1/6, 20 μM tolbutamide for CYP2C9/11, 5 μM dextromethorphan for CYP2D1/6, 20 μM chlorzoxazone for CYP2E1 and 10 μM midazolam for CYP3A2/4), which were close to Km respectively. The proportion of organic solvent was not higher than 1% (v/v) in the incubation mixture. After pre-incubation for 5 min, the reaction was initiated by addition of NADP. Incubations were performed for 20 min, stopped by adding 200 μl ice-cold acetonitrile. And then 20 μl internal standard solution was added (3-acetamidophenol 2 μg/ml, chlorpropamide 2 μg/ml and mebendazole 2 μg/ml). The solution was mixed thoroughly for 3 min and centrifuged for 10 min at 16,000 × g at 4 °C. The supernatant (60 μl) was transferred to autosampler vials, and 2 μl was injected into LC-MS/MS system.
(§2) The IC50 (concentration of inhibitor to cause 50% inhibition of original enzyme activity) values were determined with the same incubation condition above. The specific concentrations of plumbagin were ranged from 0.1 μM to 50 μM. The IC50 values were calculated by plotting relative activities over the logarithm of plumbagin concentrations using GraphPad Prism 5.0 (GraphPad software Inc., CA, USA).
(§3) Cocktail probe substrates were then added and incubated for 20 min. Reactions were stopped with 200 μl ice-cold acetonitrile. The samples were treated according to the microsomal incubation method and then injected into LC-MS/MS for analysis.
(§4) Kinetic studies were performed for determining the types of inhibition on CYP by plumbagin. Pooled HLMs (0.5 mg/ml) or RLMs (1 mg/ml) with plumbagin (1 μM, 2 μM, 5 μM and 10 μM) were incubated in 0.05 M Tris/HCl buffer (pH 7.4) for 20 min at 37 °C. A series of concentrations for cocktail probe substrates were used: 2.5–20 μM phenacetin for CYP1A2; 5–40 μM bupropion for CYP2B1/6; 5–40 μM tolbutamide for CYP2C9/11; 1.25–10 μM dextromethorphan for CYP2D1/6; 5–40 μM chlorzoxazone for CYP2E1; 2.5–80 μM midazolam for CYP3A2; and 0.625–5 μM midazolam for CYP3A4. Enzyme kinetics as well as statistical analysis were performed using GraphPad Prism 5.0.
(§5) All data were presented as mean ± SD. The IC50 values were fitted by non-linear regression analysis using GraphPad Prism 5.0. The kinetic parameters were obtained by fitting velocity data to kinetic models (Michaelis-Menten) using GraphPad Prism 5.0. The Lineweaver-Burk Plot (the reciprocal of reaction velocities versus the reciprocal of substrates concentrations) was used to determine the quality of fit to a specific inhibition model. The inhibition constant (Ki) was obtained by a secondary plot using the slopes of the primary Lineweaver-Burk Plot (Km/Vmax versus inhibitor concentrations). αKi was obtained from a secondary plot using the y-intercepts of the Lineweaver-Burk plot (1/Vmax versus inhibitor concentrations). All results were analyzed in quadruplicate. One-way analysis of variance was used to estimate the significance of differences. There was statistical significance between control and test groups if p < 0.05.

CYP2B6 = target: T2, CYP2B6 (Homo sapiens, UniProt P20813); assay: biochemical; assay type: in vitro ADME
T2 construct: consisting of pooled HLMs (0.5 mg/ml) or RLMs (1 mg/ml) and an NADPH-regenerating system; tissue Corning Gentest Corporation; host or cells: pooled human liver microsomes (n = 20)
T2 sequence (P20813 1-491): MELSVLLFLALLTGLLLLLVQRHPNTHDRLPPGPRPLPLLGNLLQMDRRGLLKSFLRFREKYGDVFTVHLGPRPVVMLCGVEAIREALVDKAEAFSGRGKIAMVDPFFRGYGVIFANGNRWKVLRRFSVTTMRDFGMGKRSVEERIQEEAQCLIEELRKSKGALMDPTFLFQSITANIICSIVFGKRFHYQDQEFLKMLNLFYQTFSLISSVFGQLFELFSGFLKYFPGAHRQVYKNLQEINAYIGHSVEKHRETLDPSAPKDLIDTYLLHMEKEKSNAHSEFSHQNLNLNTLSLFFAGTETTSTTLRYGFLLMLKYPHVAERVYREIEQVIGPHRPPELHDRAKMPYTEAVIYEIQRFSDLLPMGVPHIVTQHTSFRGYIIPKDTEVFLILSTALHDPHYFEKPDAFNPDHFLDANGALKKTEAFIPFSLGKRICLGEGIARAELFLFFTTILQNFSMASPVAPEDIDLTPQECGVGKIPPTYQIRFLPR
Method: as §1, §2, §3, §4, §5

Structure (SMILES): CC1=CC(=O)c2c(O)cccc2C1=O [plumbagin, 5-hydroxy-2-methyl-1,4-naphthoquinone]
- IC50 (CYP1A2): 7.49 µM
- Ki (CYP1A2): 0.15 µM
- Type of inhibition (CYP1A2): non-competitive
- α (CYP1A2; human, 20 min, pH 7.4): 0.94
- αKi (CYP1A2; human, 20 min, pH 7.4): 0.16 µM
- IC50 (CYP2B6): 13.1 µM
- Ki (CYP2B6): 1.62 µM
- Type of inhibition (CYP2B6): mixed-type
- α (CYP2B6; human, 20 min, pH 7.4): 0.55
- αKi (CYP2B6; human, 20 min, pH 7.4): 2.92 µM
